In patent US20190210969A1, “INTRAESOPHAGEAL ADMINISTRATION OF TARGETED NITROXIDE AGENTS FOR PROTECTION AGAINST IONIZING IRRADIATION-INDUCED ESOPHAGITIS” (University of Pittsburgh - Of the Commonwealth System of …, priority 2010, published 2019):

Columns and labels:
Format in all cases: in vivo, mouse
[1] = system: Lewis lung carcinoma cells (3LL); experiment: Irradiation of mice with orthotopic 3LL lung tumors
Source text: A separate group of mice received intratracheal administration of 1×10^6 Lewis lung carcinoma cells (3LL) seven days prior to administration of JP4-039, followed immediately by excision of lung tissue to calculate JP4-039 uptake by cancer cells.
This dose of irradiation was chosen to reduce tumor growth but was below the level required for lethal esophagitis. […] Control tumor-bearing mice received no irradiation.

[2] = system: C57BL/6NHsd mice, upper body irradiation; experiment: Survival after upper body (thoracic) irradiation, irradiation-induced esophagitis; conditions: for protection (survival): 4 μg JP4-039 in 110 μl F15 10 minutes before, MnSOD-PL 24 hours prior, preliminary data
Source text: Animals and animal care. C57BL/6HNsd female and C57BL/6JHNsd-GFP male mice (22-22 gm) were housed, five per cage and fed standard laboratory chow according to previous publications (3). C57BL/6NHsd mice (15 per group) were irradiated (details are given in the next section) and received swallowed JP4-039 or MnSOD-PL pre- or post-radiation. The mice were monitored for development of esophagitis.
Irradiation. Mice were irradiated to 28 or 29 Gy to the upper body using a JL Shepherd Mark I cesium irradiator (J.L. Shepherd and Associates, San Fernando, Ca, USA) ([…]), according to published methods (Epperly M W, et al. Zhang X, Nie S, Cao S, Kagan V, Tyurin V and Greenberger J S: MnSOD-plasmid liposome gene therapy effects on ionizing irradiation induced lipid peroxidation of the esophagus. In Vivo 19: 997-1004, 2005). The head and abdomen were shielded, as described previously (Stickle R L, et al. Prevention of irradiation-induced esophagitis by plasmid/liposome delivery of the human manganese superoxide dismutase (MnSOD) transgene. Radiat Oncol Invest Clinical & Basic Res 7: 204-217, 1999), so that only the thoracic cavity received irradiation.
Intraesophageal drug administration. The methods for preparation of MnSOD-plasmid liposomes using PNVL3 lipid have been published previously (Epperly M W, et al. Modulation of radiation-induced cytokine elevation associated with esophagitis and esophageal stricture by manganese superoxide dismutase-plasmid/liposome (MnSOD-PL) gene therapy. Radiat Res 155: 2-14, 2001). Briefly, 100 μl liposomes containing […] plasmid were injected by syringe intraesophageally into non-anesthetized mice immediately after they received 100 μl distilled water.
The stock solutions described above were diluted, so that the total amount of JP4-039 administered to each animal was 400 μg. Mice were immobilized for irradiation with intraperitoneal Nembutal anesthesia after administration of JP4-039 as described above. Mice were exposed to single-dose (29 Gy) or fractionated radiation (11.5 Gy per day for four days) to the upper body.

[3] = JP4-039 content of sorted esophageal SP and NSP cells (EPR); conditions: 20 esophagi excised 10 minutes after intraesophageal delivery
Method: Ten minutes after administration of JP4-039, esophagi were removed, minced, and incubated in a solution of 0.2% Collagenase type II, 0.3% Dispase and 0.025% Trypsin for 45 minutes at 37 degrees Celsius. Cell aggregates were then passed through sequentially smaller needles (to 23-gauge) and filtered with a […] cell strainer into DMEM supplemented with 40% fetal bovine serum. Suspensions were pelleted via centrifugation and resuspended at 10^6 cells/ml in pre-warmed DMEM (2% FBS, 10 mM HEPES). Cells were incubated in 6 μg/ml Hoechst 33342 for 90 minutes to identify SP cells. Verapamil, which inhibits the efflux of Hoechst, was used as a concentration of 50 μM for the purpose of cell gating. Cells were pelleted and resuspended in cold Hank's Balanced Salt Solution (HBSS) (2% FBS, 10 mM HEPES) and incubated with anti-CD45-phycoerythrin (PE)-fluorescein isothiocyanate (FITC) and/or anti-Ter119-PE-Cy7 antibodies at 1:200 dilutions, to discriminate hematopoietic cells. Antibody-treated cells were incubated on ice for 20 minutes, washed in cold HBSS, filtered, pelleted, and resuspended in cold HBSS. […] SP and NSP cells were quantified, sorted into separate collection tubes containing cold HBSS (2% FBS, 10 mM HEPES) and pelleted. […] JP4-039 content in sorted SP and NSP cells was quantified by electron paramagnetic resonance (EPR) analysis using a JEOL-RE1XEPR spectrometer. […]

## CC(C)C[C@@H](/C=C/CC(=O)NC1CC(C)(C)N([O])C(C)(C)C1)NC(=O)OC(C)(C)C [JP4-039, TEMPO-4-yl-(S,E)-5-(tert-butoxycarbonylamino)-7-methyloct-3-enamide]
[1]; 4 μg in 110 μl F15, 10 minutes before 0 or 15 Gy upper-body irradiation
  protection of orthotopic 3LL cells from irradiation: did not protect 3LL cells from irradiation
[1]; prior to 20 Gy thoracic irradiation, p=0.3693
  survival of 3LL tumor-bearing mice compared to F15 alone: did not survive significantly differently
[2]; 400 μg in F15 immediately prior to single fraction 29 Gy thoracic irradiation, vs F15 vehicle only, p=0.0384
  survival: increased survival
[2]; 29 Gy upper body irradiation, vs F15 or radiation alone
  protection (survival): protective
[2]; four daily sessions of 12 Gy, p=0.0430
  protection (survival): protective
[2]; prior to each of four fractions of 11.5 Gy thoracic irradiation, vs F15 only, p=0.0388
  survival: increased survival
[3]; 101,00 SP cells
  JP4-039 content of sorted SP cell pellet: 275.1 fmol
[3]; 3,387,00 NSP cells
  JP4-039 content of sorted NSP cells: 221.3 fmol
